Values after ≈ are worked out from the molar mass of the structure shown. Active and inactive are the calls of the source. No cut-off for these calls is given here.
Key:
AGS [1] = experiment: Cytotoxicity against human AGS cells assessed as cell viability by MTT assay; format: cell-based
[2] = Antimicrobial activity against Helicobacter pylori 26695 ATCC 700392 at 100 ug/ml by disk agar diffusion method; format: functional; conditions: read-out: DIZ
Helicobacter pylori [3] = experiment: Antimicrobial activity against metronidazole and clarithromycin-resistant Helicobacter pylori v633 at pH 7 by microdilution method; format: functional
Helicobacter pylori [4] = experiment: Antimicrobial activity against metronidazole and clarithromycin-resistant Helicobacter pylori v633 at pH 5 by microdilution method; format: functional
[5] = Antimicrobial activity against Helicobacter pylori 26695 ATCC 700392 at pH 7 by microdilution method; format: functional
Helicobacter pylori [6] = experiment: Antimicrobial activity against metronidazole and clarithromycin-resistant Helicobacter pylori v1254 at pH 8 by microdilution method; format: functional
Helicobacter pylori [7] = experiment: Antimicrobial activity against metronidazole and clarithromycin-resistant Helicobacter pylori v1254 at pH 5 by microdilution method; format: functional
AGS [8] = experiment: Inhibition of NFkappaB activation expressed in human AGS cells infected with Helicobacter pylori at 20 ug/ml relative to control; format: cell-based
Helicobacter pylori [9] = experiment: Antimicrobial activity against metronidazole and clarithromycin-resistant Helicobacter pylori v633 at pH 8 by microdilution method; format: functional
[10] = Antimicrobial activity against Helicobacter pylori 26695 ATCC 700392 at pH 5 by microdilution method; format: functional
Helicobacter pylori [11] = experiment: Antimicrobial activity against metronidazole and clarithromycin-resistant Helicobacter pylori v1254 at pH 7 by microdilution method; format: functional
AGS [12] = experiment: Inhibition of Helicobacter pylori 26695 ATCC 700392 cytotoxin A-induced vacuolation in human AGS cells after 24 hrs by neutral red uptake assay; format: functional, cell-based
[13] = Antimicrobial activity against Helicobacter pylori 26695 ATCC 700392 at pH 8 by microdilution method; format: functional
[14] = Antimicrobial activity against Helicobacter pylori 26695 ATCC 700392 at 50 ug/ml by disk agar diffusion method; format: functional; conditions: read-out: DIZ
Helicobacter pylori [15] = experiment: Inhibition of Helicobacter pylori adhesion to human AGS cells at 20 ug/ml after 6 hrs by gentamicin assay relative to control; format: functional
[16] = Antimicrobial activity against Helicobacter pylori 26695 ATCC 700392 at 800 ug/ml by disk agar diffusion method; format: functional; conditions: read-out: DIZ
Helicobacter pylori [17] = experiment: Inhibition of Helicobacter pylori invasion to human AGS cells at 20 ug/ml after 6 hrs by gentamicin assay relative to control; format: functional
Helicobacter pylori [18] = experiment: Inhibition of Helicobacter pylori adhesion to human AGS cells at 5 ug/ml after 6 hrs by gentamicin assay relative to control; format: functional
Helicobacter pylori [19] = experiment: Inhibition of Helicobacter pylori 26695 ATCC 700392 CagA-induced pathogenesis in human AGS cells assessed as reduction of hummingbird phenotype of host cells after 6 hrs; format: functional, cell-based; conditions: ATCC 700392 26695
Helicobacter pylori [20] = experiment: Antimicrobial activity against Helicobacter pylori infected in human AGS cells assessed as reduction of tyrosine phosphorylated CagA level translocation at 20 ug/ml after 6 hrs by immunoblot analysis; format: functional
Helicobacter pylori [21] = experiment: Inhibition of Helicobacter pylori invasion to human AGS cells at 10 ug/ml after 6 hrs by gentamicin assay relative to control; format: functional
Helicobacter pylori [22] = experiment: Inhibition of Helicobacter pylori 26695 ATCC 700392 CagA-induced pathogenesis in human AGS cells assessed as reduction of hummingbird phenotype of host cells at 20 ug/ml after 6 hrs; format: functional; conditions: ATCC 700392 26695, AGS
AGS [23] = experiment: Inhibition of NFkappaB activation expressed in human AGS cells infected with Helicobacter pylori assessed as inhibition of IL-8 production at 20 ug/ml relative to control; format: cell-based
Helicobacter pylori [24] = experiment: Antimicrobial activity against Helicobacter pylori infected in human AGS cells assessed as inhibition of CagA gene translocation at 20 ug/ml after 6 hrs by immunoblot analysis; format: functional
Helicobacter pylori [25] = experiment: Antimicrobial activity against Helicobacter pylori infected in human AGS cells assessed as inhibition of CagA gene translocation after 6 hrs by immunoblot analysis; format: functional, organism-based
Helicobacter pylori [26] = experiment: Inhibition of Helicobacter pylori adhesion to human AGS cells at 10 ug/ml after 6 hrs by gentamicin assay relative to control; format: functional
AGS [27] = experiment: Inhibition of NFkappaB activation expressed in human AGS cells infected with Helicobacter pylori at 10 ug/ml relative to control; format: cell-based
Helicobacter pylori [28] = experiment: Antimicrobial activity against Helicobacter pylori infected in human AGS cells assessed as reduction of tyrosine phosphorylated CagA level translocation after 6 hrs by immunoblot analysis; format: functional, organism-based
Helicobacter pylori [29] = experiment: Inhibition of Helicobacter pylori invasion to human AGS cells at 5 ug/ml after 6 hrs by gentamicin assay relative to control; format: functional

COc1cc(Cn2c(-c3c(F)cccc3F)nc3cc(C)ccc32)cc(OC)c1OC
Activity (AGS [1]): Toxic | zone of inhibition at 100 µg/mL [2]: 24 mm

c1ccc2[nH]cnc2c1 [BENZIMIDAZOLE]
MBC (Helicobacter pylori [3]): 400 µg/mL (≈ 3390 µM) | MBC (Helicobacter pylori [4]): > 800 µg/mL | MBC [5]: 400 µg/mL (≈ 3390 µM) | MBC (Helicobacter pylori [6]): 400 µg/mL (≈ 3390 µM) | MBC (Helicobacter pylori [7]): > 800 µg/mL | inhibition (AGS [8]): Active | MBC (Helicobacter pylori [9]): 400 µg/mL (≈ 3390 µM) | MBC [10]: > 800 µg/mL | MBC (Helicobacter pylori [11]): 400 µg/mL (≈ 3390 µM) | zone of inhibition at 100 µg/mL [2]: 0 mm | inhibition (AGS [12]): Active | MBC [13]: > 800 µg/mL

COc1cc(Cn2c(-c3ccccc3Cl)nc3cc(C)ccc32)cc(OC)c1OC
Activity (AGS [1]): Toxic | zone of inhibition at 100 µg/mL [2]: 21 mm

COc1cc(Cn2c(-c3ccc(Cl)cc3Cl)nc3cc(C)ccc32)cc(OC)c1OC
zone of inhibition at 100 µg/mL [2]: 11 mm

COc1cc(Cn2c(-c3ccccc3)nc3cc(C)c(C)cc32)cc(OC)c1OC
zone of inhibition at 100 µg/mL [2]: 16 mm

COc1cc(Cn2c(-c3ccc(F)cc3)nc3cc(C)ccc32)cc(OC)c1OC
zone of inhibition at 100 µg/mL [2]: 17 mm

CC1(C)S[C@@H]2[C@H](NC(=O)[C@H](N)c3ccc(O)cc3)C(=O)N2[C@H]1C(=O)O [AMOXICILLIN]
zone of inhibition at 50 µg/mL [14]: 14 mm

COc1cc(Cn2c(-c3cccc(C)c3)nc3cc(C)ccc32)cc(OC)c1OC
zone of inhibition at 100 µg/mL [2]: 19 mm

COc1cccc(-c2nc3cc(C)ccc3n2Cc2cc(OC)c(OC)c(OC)c2)c1
zone of inhibition at 100 µg/mL [2]: 0 mm

COc1ccc(-c2nc3ccc(Cl)cc3n2Cc2cc(OC)c(OC)c(OC)c2)cc1
zone of inhibition at 100 µg/mL [2]: 12 mm

Cc1ncc([N+](=O)[O-])n1CCO [METRONIDAZOLE]
MBC (Helicobacter pylori [3]): 50 µg/mL (≈ 292 µM) | inhibition at 20 µg/mL (Helicobacter pylori [15]): 20% | MBC (Helicobacter pylori [4]): 50 µg/mL (≈ 292 µM) | MBC [5]: 12.5 µg/mL (≈ 73 µM) | MBC (Helicobacter pylori [6]): 100 µg/mL (≈ 584 µM) | MBC (Helicobacter pylori [7]): 100 µg/mL (≈ 584 µM) | MBC (Helicobacter pylori [9]): 50 µg/mL (≈ 292 µM) | MBC [10]: 6.25 µg/mL (≈ 36.5 µM) | MBC (Helicobacter pylori [11]): 100 µg/mL (≈ 584 µM) | zone of inhibition at 800 µg/mL [16]: 7 mm | MBC [13]: 12.5 µg/mL (≈ 73 µM) | inhibition at 20 µg/mL (Helicobacter pylori [17]): 20%

CC[C@H]1OC(=O)[C@H](C)[C@@H](O[C@H]2C[C@@](C)(OC)[C@@H](O)[C@H](C)O2)[C@H](C)[C@@H](O[C@@H]2O[C@H](C)C[C@H](N(C)C)[C@H]2O)[C@](C)(OC)C[C@@H](C)C(=O)[C@H](C)[C@@H](O)[C@]1(C)O [CLARITHROMYCIN]
zone of inhibition at 50 µg/mL [14]: 21 mm

COc1cc(Cn2c(-c3ccccc3)nc3cc(F)ccc32)cc(OC)c1OC
zone of inhibition at 100 µg/mL [2]: 17 mm

COc1cc(Cn2c(-c3cccc(Cl)c3Cl)nc3cc(C)ccc32)cc(OC)c1OC
zone of inhibition at 100 µg/mL [2]: 13 mm

COc1cc(Cn2c(-c3cc(F)ccc3F)nc3cc(C)ccc32)cc(OC)c1OC
zone of inhibition at 100 µg/mL [2]: 11 mm

COc1cc(Cn2c(-c3ccccc3F)nc3cc(C)ccc32)cc(OC)c1OC
inhibition at 5 µg/mL (Helicobacter pylori [18]): 6% | MBC (Helicobacter pylori [3]): 12.5 µg/mL (≈ 30.8 µM) | inhibition (Helicobacter pylori [19]): Dose-dependent effect | inhibition at 20 µg/mL (Helicobacter pylori [15]): 58% | inhibition at 20 µg/mL (Helicobacter pylori [20]): 55% | inhibition at 10 µg/mL (Helicobacter pylori [21]): 28% | MBC (Helicobacter pylori [4]): 12.5 µg/mL (≈ 30.8 µM) | inhibition at 20 µg/mL (Helicobacter pylori [22]): 98% | MBC [5]: 25 µg/mL (≈ 61.5 µM) | inhibition (AGS [23]): 85% | MBC (Helicobacter pylori [6]): 12.5 µg/mL (≈ 30.8 µM) | MBC (Helicobacter pylori [7]): 12.5 µg/mL (≈ 30.8 µM) | inhibition at 20 µg/mL (Helicobacter pylori [24]): 55% | inhibition (Helicobacter pylori [25]): Dose-dependent effect | inhibition (AGS [8]): 42% | Activity (AGS [1]): Non-toxic | inhibition at 10 µg/mL (Helicobacter pylori [26]): 31% | inhibition (AGS [27]): 14% | MBC (Helicobacter pylori [9]): 12.5 µg/mL (≈ 30.8 µM) | MBC [10]: 25 µg/mL (≈ 61.5 µM) | MBC (Helicobacter pylori [11]): 12.5 µg/mL (≈ 30.8 µM) | inhibition (Helicobacter pylori [28]): Dose-dependent effect | zone of inhibition at 100 µg/mL [2]: 24 mm | inhibition (AGS [12]): Dose-dependent effect | MBC [13]: 25 µg/mL (≈ 61.5 µM) | inhibition at 20 µg/mL (Helicobacter pylori [17]): 52% | inhibition at 5 µg/mL (Helicobacter pylori [29]): 7%

COc1ccccc1-c1nc2cc(C)ccc2n1Cc1cc(OC)c(OC)c(OC)c1
Activity (AGS [1]): Toxic | zone of inhibition at 100 µg/mL [2]: 21 mm

COc1cc(Cn2c(-c3ccccc3)nc3cc(C)ccc32)cc(OC)c1OC
Activity (AGS [1]): Toxic | zone of inhibition at 100 µg/mL [2]: 22 mm

COc1ccc(-c2nc3ccc(C)cc3n2Cc2cc(OC)c(OC)c(OC)c2)cc1
zone of inhibition at 100 µg/mL [2]: 15 mm

COc1ccc(-c2nc3cc(Cl)ccc3n2Cc2cc(OC)c(OC)c(OC)c2)cc1
zone of inhibition at 100 µg/mL [2]: 11 mm

COc1cc(Cn2c(-c3ccc(Cl)c(Cl)c3)nc3cc(C)ccc32)cc(OC)c1OC
zone of inhibition at 100 µg/mL [2]: 9 mm

COc1cc(Cn2c(-c3cccc4ccccc34)nc3cc(C)ccc32)cc(OC)c1OC
zone of inhibition at 100 µg/mL [2]: 12 mm

COc1ccc2nc(-c3ccccc3)n(Cc3cc(OC)c(OC)c(OC)c3)c2c1
zone of inhibition at 100 µg/mL [2]: 0 mm

COc1cc(Cn2c(-c3ccc(C#N)cc3)nc3cc(C)ccc32)cc(OC)c1OC
zone of inhibition at 100 µg/mL [2]: 12 mm

COc1ccc(-c2nc3cc(C)ccc3n2Cc2cc(OC)c(OC)c(OC)c2)cc1
Activity (AGS [1]): Toxic | zone of inhibition at 100 µg/mL [2]: 22 mm

COc1cc(Cn2c(-c3ccccc3)nc3ccc(Cl)cc32)cc(OC)c1OC
zone of inhibition at 100 µg/mL [2]: 14 mm

COc1cc(Cn2c(-c3ccccc3C)nc3cc(C)ccc32)cc(OC)c1OC
zone of inhibition at 100 µg/mL [2]: 14 mm

COc1cc(Cn2c(-c3ccc4ccccc4c3)nc3cc(C)ccc32)cc(OC)c1OC
zone of inhibition at 100 µg/mL [2]: 0 mm

COc1cc(Cn2c(-c3ccccc3)nc3cc(Cl)ccc32)cc(OC)c1OC
zone of inhibition at 100 µg/mL [2]: 11 mm

COc1cc(Cn2c(-c3ccccc3)nc3ccc(C)cc32)cc(OC)c1OC
Activity (AGS [1]): Toxic | zone of inhibition at 100 µg/mL [2]: 21 mm

COc1cc(Cn2c(-c3cccc(F)c3)nc3cc(C)ccc32)cc(OC)c1OC
zone of inhibition at 100 µg/mL [2]: 0 mm

Reference: ChEMBL document CHEMBL2163213, “Synthesis and bioevaluation of novel 3,4,5-trimethoxybenzylbenzimidazole derivatives that inhibit Helicobacter pylori-induced pathogenesis in human gastric epithelial cells” (Eur J Med Chem, 2012)
